In patent US20260092039A1, “DUAL INHIBITORS FOR THE TREATMENT OF ALZHEIMER'S DISEASE” (UNIVERSITAT DE BARCELONA, priority 2023, published 2026):

Legend:
[1] = target: T1, recombinant human sEH (hsEH) (Homo sapiens, UniProt P34913); assay: In vitro determination of sEH inhibitory activity (fluorescent PHOME assay)
T1 sequence (P34913 1-555): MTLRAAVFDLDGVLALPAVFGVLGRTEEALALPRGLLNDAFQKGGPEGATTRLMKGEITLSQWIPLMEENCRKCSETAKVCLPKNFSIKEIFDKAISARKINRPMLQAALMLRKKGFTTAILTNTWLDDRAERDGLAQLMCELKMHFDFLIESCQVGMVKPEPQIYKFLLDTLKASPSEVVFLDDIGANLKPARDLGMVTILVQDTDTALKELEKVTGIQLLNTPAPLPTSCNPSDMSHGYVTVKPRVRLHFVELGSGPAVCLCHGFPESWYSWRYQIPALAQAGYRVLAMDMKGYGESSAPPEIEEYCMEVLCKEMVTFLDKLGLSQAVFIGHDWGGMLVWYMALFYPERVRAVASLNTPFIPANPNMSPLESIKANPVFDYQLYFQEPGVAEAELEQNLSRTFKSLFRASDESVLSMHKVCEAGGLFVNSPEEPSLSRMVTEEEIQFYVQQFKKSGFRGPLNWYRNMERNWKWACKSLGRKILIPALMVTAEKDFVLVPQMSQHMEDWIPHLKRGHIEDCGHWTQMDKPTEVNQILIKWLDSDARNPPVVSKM
Protocol: Control compound (TPPU): N-[1-(1-Oxopropyl)-4-piperidinyl]-N′-[4-(trifluoromethoxy)phenyl]urea.
Five μL of DMSO were added to background and positive control wells, and then 5 μL of inhibitor solution were added in the inhibitor wells. Five μL of the solution of hsEH were added to the positive control and inhibitor wells and the mixture was stirred. A 1/21 dilution of the solution of PHOME with assay buffer was prepared according to the final volume required, and then 105 μL of each well were added. The plate was carefully shaken for 10 seconds and was incubated for 5 minutes at room temperature. […] The intensity of fluorescence was used to analyze and calculate the IC50 values. Results were obtained by regression analysis from at least three data points in a linear region of the curve. IC50 values are average of minimum three independent replicates.

[2] = Parallel artificial membrane permeation assay for blood-brain barrier (PAMPA-BBB); type: in vitro ADME, porcine; details: for Papp: pig, PBS:EtOH (70:30), read-out: Blood-brain barrier permeability Pe; for CNS prediction: predictive penetration in the CNS from Pe
Protocol: A parallel artificial membrane permeation assay for blood-brain barrier (PAMPA-BBB) was used to evaluate the brain penetration of compounds of formula I, following the method described by L. Di et al., “High throughput artificial membrane permeability assay for blood-brain barrier”, European Journal of Medicinal Chemistry 2003, vol. 38. pp. 223-232. The in vitro permeability (Pe) of the test compounds through a lipid extract of porcine brain membrane was determined. Assayed compounds were tested using a mixture of PBS:EtOH (70:30). Assay validation was made by comparing the experimental and reported permeability values of a set of fourteen commercial drugs and a lineal correlation between experimental and reported permeability values of the fourteen commercial drugs was obtained (y=1.678 x−1.447; R^2=0.9313). From this equation and taking into account the limits established by Di et al. for BBB permeation, the ranges of permeability were established, as follows. Compounds of high BBB permeation (CNS+): Pe (10^−6 cm s^−1)>5.26; compounds of low BBB permeation (CNS−): Pe (10^−6 cm s^−1)<1.91; and compounds of uncertain BBB permeation (CNS+/−): 5.26>Pe (10^−6 cm s^−1)>1.91. The permeability results are averages of three different experiments in triplicate and a predictive penetration in the CNS is also given (Table 5).

[3] = target: T2, human recombinant glutaminyl cyclase (hQC) (Homo sapiens, UniProt Q16769); assay: In vitro determination of human QC inhibitory activity (SensoLyte Green Glutaminyl Cyclase Activity Assay Kit); type: biochemical
T2 construct: purchased Eurogentec AS-72230
Protocol: Basic statistical analysis was performed.

T2 sequence (Q16769 29-361): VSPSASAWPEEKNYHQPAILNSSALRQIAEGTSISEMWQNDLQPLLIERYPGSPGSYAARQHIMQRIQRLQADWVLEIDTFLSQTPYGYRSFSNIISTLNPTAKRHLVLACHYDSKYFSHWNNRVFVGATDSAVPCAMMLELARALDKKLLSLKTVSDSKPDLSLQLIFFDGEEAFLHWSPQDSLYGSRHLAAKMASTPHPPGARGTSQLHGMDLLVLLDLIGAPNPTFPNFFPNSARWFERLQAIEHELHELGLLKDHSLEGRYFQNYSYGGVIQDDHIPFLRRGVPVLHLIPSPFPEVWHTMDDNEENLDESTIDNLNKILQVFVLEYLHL

Row | Compound | IC50 [1] [µM] | Papp [2] [×10⁻⁶ cm/s] | IC50 [3] [µM] | CNS prediction [2]
1 | Cc1cncn1CCCNC(=O)NC12CC3CC(CC(C3)C1)C2 [Ia, 1-(adamantan-1-yl)-3-[3-(5-methyl-1H-imidazol-1-yl)propyl]urea] | 0.035 | 7.1 | 0.61 | CNS+ (Compounds of high BBB permeation (CNS+): Pe (10^−6 cm s^−1)>5.26)
2 | Cc1cncn1CCCNC(=O)N[C@H]1C2CC3CC1C[C@](Cl)(C3)C2 [Iab, trans-1-(5-chloroadamantan-2-yl)-3-[3-(5-methyl-1H-imidazol-1-yl)propyl]urea] | 0.039 | 13.1 | 0.559 | CNS+ (Compounds of high BBB permeation (CNS+): Pe (10^−6 cm s^−1)>5.26)
3 | Cc1cncn1CCCNC(=O)N[C@H]1C2CC3CC1C[C@](F)(C3)C2 [Iac, trans-1-(5-fluoroadamantan-2-yl)-3-[3-(5-methyl-1H-imidazol-1-yl)propyl]urea] | 0.02 | 8.6 | 0.236 | CNS+ (Compounds of high BBB permeation (CNS+): Pe (10^−6 cm s^−1)>5.26)
4 | Cc1cncn1CCCNC(=O)NC12CC3CC(C)(CC(C)(C3)C1)C2 [Ie, 1-(3,5-dimethyladamantan-1-yl)-3-[3-(5-methyl-1H-imidazol-1-yl)propyl]urea] | 0.029 | 8.8 | 2.1 | CNS+ (Compounds of high BBB permeation (CNS+): Pe (10^−6 cm s^−1)>5.26)
5 | O=C(NCCCn1ccnc1)NC1C2CC3CC(C2)CC1C3 (stereo not drawn) [Ij, 1-[3-(1H-imidazol-1-yl)propyl]-3-(adamantan-2-yl)urea] | 0.045 | 9.4 | 5.2 | CNS+ (Compounds of high BBB permeation (CNS+): Pe (10^−6 cm s^−1)>5.26)
6 | Cc1cncn1CCCNC(=O)NCC12CC3CC(CC(C3)C1)C2 [Ik, 1-[(adamantan-1-yl)methyl]-3-[3-(5-methyl-1H-imidazol-1-yl)propyl]urea] | 0.009 | 14.1 | 0.73 | CNS+ (Compounds of high BBB permeation (CNS+): Pe (10^−6 cm s^−1)>5.26)
7 | O=C(NCCCn1ccnc1)NCC12CC3CC(CC(C3)C1)C2 [Im, 1-[3-(1H-imidazol-1-yl)propyl]-3-[(adamantan-1-yl)methyl]urea] | 0.3 | 11.8 | 3.5 | CNS+ (Compounds of high BBB permeation (CNS+): Pe (10^−6 cm s^−1)>5.26)
8 | Cc1cncn1CCCNC(=O)NCCC12CC3CC(CC(C3)C1)C2 [Io, 1-[2-(adamantan-1-yl)ethyl]-3-[3-(5-methyl-1H-imidazol-1-yl)propyl]urea] | 0.0013 | 18.7 | 1.65 | CNS+ (Compounds of high BBB permeation (CNS+): Pe (10^−6 cm s^−1)>5.26)

The next lines start with results.

Row | IC50 [1] [µM] | Papp [2] [×10⁻⁶ cm/s] | IC50 [3] [µM] | Compound | CNS prediction [2]
9 | 0.095 | 13 | 1.45 | Cc1cncn1CCCNC(=O)NCCC1C2CC3CC(C2)CC1C3 (stereo not drawn) [Ip, 1-[2-(adamantan-2-yl)ethyl]-3-[3-(5-methyl-1H-imidazol-1-yl)propyl]urea] | CNS+ (Compounds of high BBB permeation (CNS+): Pe (10^−6 cm s^−1)>5.26)
10 | 0.185 | 5.8 | 0.46 | Cc1cncn1CCCNC(=O)NC12CC3CC(CC1C3)C2 [It, 1-(noradamantan-3-yl)-3-[3-(5-methyl-1H-imidazol-1-yl)propyl]urea] | CNS+ (Compounds of high BBB permeation (CNS+): Pe (10^−6 cm s^−1)>5.26)
11 | 0.103 | 7.5 | 0.54 | Cc1cncn1CCCNC(=O)NC12CC3(C)C4(C)CC1CC4(C)C3(C)C2 [Iv, 1-[3-(5-methyl-1H-imidazol-1-yl)propyl]-3-(3,4,8,9-tetramethyltetracyclo[4.4.0.0^3,9.0^4,8]decan-1-yl)urea] | CNS+ (Compounds of high BBB permeation (CNS+): Pe (10^−6 cm s^−1)>5.26)
12 | 0.023 | 9.8 | 0.205 | Cc1cncn1CCCNC(=O)N(C)C1C2CC3CC(C2)CC1C3 (stereo not drawn) [Iy, 1-(adamantan-2-yl)-1-methyl-3-[3-(5-methyl-1H-imidazol-1-yl)propyl]urea] | CNS+ (Compounds of high BBB permeation (CNS+): Pe (10^−6 cm s^−1)>5.26)
